The results in this text go back to patent US6056942A, “5-HT1A ligands” (John Wyeth & Brother, Ltd., priority 1993, dated 2000).

Structures are written as SMILES. Like-named read-outs stand apart in the source and are kept apart here.

In general, IC50 refers to the concentration that inhibits the measured activity by half. One may read the inhibition as the drop in the measured response relative to a control, in per cent.

The target in assay [1] is T1, 5-HT1A receptor (Rattus norvegicus, UniProt P19327).
T1 construct: 5-HT1A receptor in rat hippocampal membranes; from tissue; host or cells: rat hippocampal membranes
T1 sequence (P19327 1-422): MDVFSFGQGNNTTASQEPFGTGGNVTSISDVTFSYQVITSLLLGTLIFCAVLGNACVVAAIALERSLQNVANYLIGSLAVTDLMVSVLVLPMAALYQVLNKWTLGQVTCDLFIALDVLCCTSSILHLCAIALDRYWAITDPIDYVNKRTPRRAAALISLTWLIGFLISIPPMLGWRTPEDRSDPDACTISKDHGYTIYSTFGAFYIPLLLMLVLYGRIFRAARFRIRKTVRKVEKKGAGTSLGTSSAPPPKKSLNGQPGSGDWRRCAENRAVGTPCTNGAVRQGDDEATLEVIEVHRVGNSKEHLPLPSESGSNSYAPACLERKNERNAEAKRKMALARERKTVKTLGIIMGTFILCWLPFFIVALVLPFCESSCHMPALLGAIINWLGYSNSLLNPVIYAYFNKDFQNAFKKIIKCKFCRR
The assay is described as follows: Procedure (A): displacement of [^3 H]-8-OH-DPAT from the 5-HT1A receptor in rat hippocampal membranes. It counts as binding. The settings on record: [^3 H]-8-OH-DPAT displacement, read-out: IC50 value according to procedure (A).

The target in assay [2] is D2 (Homo sapiens, UniProt P14416). The assay is described as follows: Procedure (B): affinity for D2 receptor sites. The format is binding. Particulars: for inhibition at 1 µM: 10^-6 M, read-out: % inhibition of binding at D2. The method, then: The affinity of the compounds for D2 receptor sites is determined by the procedure of P. Seeman et al. J. Neurochem. 1984, 43, 221-235.

In assay [3] the target is T2, 5-HT2A (Rattus norvegicus, UniProt P14842).
T2 construct: from tissue
The assay is described as follows: Procedure (B): affinity for 5-HT2A sites. The settings on record: for inhibition at 1 µM: 10^-6 M, read-out: % inhibition of binding at 5-HT2A. It counts as binding. The method, then: The affinity of the compound for 5-HT2A sites is determined by the procedure of R. A. Lyon et al. Mol. Pharmacol., 1987, 31, 194-199. (The 5-HT2A site was previously known as the 5-HT2 site).
(§1) Preferably the compound should be 50 fold selective.

The target of assay [4] is T3, 5-HT1B (Rattus norvegicus, UniProt P28564).
T3 construct: from tissue
The assay is described as follows: Procedure (B): affinity for 5-HT1B sites. The settings on record: 10^-6 M; read-out: % inhibition of binding at 5-HT1B. The method, then:
(§2) In addition to showing selectivity over the D2, α1 and 5-HT2A sites it is also preferable that the compound is 25 fold selective (preferably 50 fold selective) over one or more of the 5-HT1B, 5-HT2C, 5-HT1D, 5-HT3, α2, β and D1 sites. The affinity for these sites is determined by the following procedures.
5-HT1B : B. J. Alexander et al., Br. J. Pharmac., 1986, 87, P 22.

In assay [5] the target is T4, α2 (Rattus norvegicus, UniProt P22909).
T4 construct: from tissue
T4 sequence (P22909 1-465): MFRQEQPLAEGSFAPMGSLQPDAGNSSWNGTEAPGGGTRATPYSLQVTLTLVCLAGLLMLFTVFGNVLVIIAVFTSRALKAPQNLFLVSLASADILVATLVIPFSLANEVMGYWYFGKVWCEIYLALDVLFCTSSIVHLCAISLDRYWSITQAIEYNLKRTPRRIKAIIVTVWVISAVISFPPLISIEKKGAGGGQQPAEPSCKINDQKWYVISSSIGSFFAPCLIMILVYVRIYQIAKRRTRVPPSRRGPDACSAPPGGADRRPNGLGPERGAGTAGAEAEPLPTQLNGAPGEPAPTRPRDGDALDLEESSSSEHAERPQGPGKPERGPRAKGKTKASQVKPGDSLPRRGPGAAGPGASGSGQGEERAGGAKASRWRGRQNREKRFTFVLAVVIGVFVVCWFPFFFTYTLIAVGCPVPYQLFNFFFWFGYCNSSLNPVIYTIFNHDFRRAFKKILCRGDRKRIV
The assay is described as follows: Procedure (B): affinity for α2 sites. Particulars: 10^-6 M; read-out: % inhibition of binding at α2. The method, then:
The affinity for these sites is determined by the following procedures. α2 : D. J. Loftus et al. Life Sciences, 1984, 34, 61-69.

In assay [6] the target is T5, D1 (Rattus norvegicus, UniProt P18901).
T5 construct: from tissue
The assay is described as follows: Procedure (B): affinity for D1 sites. Particulars: 10^-6 M; read-out: % inhibition of binding at D1. The method, then: The affinity for these sites is determined by the following procedures. D1 : V Billard et al. Life Sciences. 1984, 35, 1885-1893.

The target of assay [7] is T6, presynaptic 5-HT1A receptors (Rattus norvegicus, UniProt P19327).
T6 construct: 5-HT release in the hippocampus using in vivo microdialysis; from tissue; host or cells: brain of the living animal
T6 sequence (P19327 1-422): T1 sequence (P19327 1-422)
The experiment in a line: Procedure (C)(a): electrophysiological monitoring of firing rate of serotonin neurones. It counts as in vivo. Particulars: iv, read-out: ID50 (neuronal firing rate). The method, then: (§3) The activation of presynaptic 5-HT1A receptors results in the inhibition of serotonin neurones which can be quantified in two ways:
(a) Electrophysiologically monitoring the activity of the neurones to measure their firing rate by the method of H. J. Haigler and G. K. Aghajanian, J. Pharmacol. Exp. Therap., 1974, 188, 688. An intravenous ID50 dose is determined. The agonist.

The target in assay [8] is T7, 5-HT1A binding site (Rattus norvegicus, UniProt P19327).
T7 sequence (P19327 1-422): T1 sequence (P19327 1-422)

Assay [9] concerns α1. The assay is described as follows: Procedure (B): affinity for α1 sites. The format is binding. The method, then:
The affinity of the compound for al sites is determined by the procedure of A. L. Morrow, et al. Mol. Pharmacol. 1986, 29, 321.
as §1

For assay [10], the system named is 5-HT2C. The experiment in a line: Procedure (B): affinity for 5-HT2C (previously 5-HT1C) sites. It counts as binding. Particulars: 10^-6 M. The method, then:
as §2
5-HT2C : B. J. Alexander et al., Br. J. Pharmac., 1986, 87, P 22. (The 5-HT2C site was previously known as the 5-HT1C site).

In assay [11] the test system is 5-HT1D. The experiment in a line: Procedure (B): affinity for 5-HT1D sites. It counts as binding. The method, then: The affinity for these sites is determined by the following procedures. […] C. Waeber et al., Naunyn-Schmniedebergs Arch. Pharmacol. 1988, 337, 595-601.
Assay [12] concerns β. The assay is described as follows: Procedure (B): affinity for β sites. The format is binding. Particulars: 10^-6 M. The method, then: The affinity for these sites is determined by the following procedures. β: L. T. Williams and R. J. Lefkowitz (1987) Receptor binding studies in adrenergic pharmacology, Raven Press, New York.
The target in assay [13] is T6, presynaptic 5-HT1A receptors. The assay is described as follows: Procedure (C)(b): 5-HT release in the hippocampus using in vivo microdialysis. The settings on record: 1 mg/kg s.c.
From the text: as §3
Routledge, J. Gurling, I. K. Wright and C.

The target in assay [14] is T7, 5-HT1A binding site. The experiment in a line: biochemical.
[15] abbreviates: concentration of 10 MM (so in the source).
The mark [16] stands for this setting: concentration not clearly stated ("as were").

T3 sequence (P28564 whole entry): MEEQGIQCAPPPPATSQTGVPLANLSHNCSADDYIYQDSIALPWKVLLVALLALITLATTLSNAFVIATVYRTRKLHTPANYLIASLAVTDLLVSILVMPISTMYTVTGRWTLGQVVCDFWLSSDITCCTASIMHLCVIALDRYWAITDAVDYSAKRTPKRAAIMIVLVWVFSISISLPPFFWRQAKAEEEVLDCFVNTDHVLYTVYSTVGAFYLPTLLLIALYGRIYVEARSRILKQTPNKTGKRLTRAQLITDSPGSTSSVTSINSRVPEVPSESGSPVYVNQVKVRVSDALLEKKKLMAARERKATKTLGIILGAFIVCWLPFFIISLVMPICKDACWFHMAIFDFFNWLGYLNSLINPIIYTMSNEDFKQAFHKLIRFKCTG
T5 sequence (P18901 whole entry): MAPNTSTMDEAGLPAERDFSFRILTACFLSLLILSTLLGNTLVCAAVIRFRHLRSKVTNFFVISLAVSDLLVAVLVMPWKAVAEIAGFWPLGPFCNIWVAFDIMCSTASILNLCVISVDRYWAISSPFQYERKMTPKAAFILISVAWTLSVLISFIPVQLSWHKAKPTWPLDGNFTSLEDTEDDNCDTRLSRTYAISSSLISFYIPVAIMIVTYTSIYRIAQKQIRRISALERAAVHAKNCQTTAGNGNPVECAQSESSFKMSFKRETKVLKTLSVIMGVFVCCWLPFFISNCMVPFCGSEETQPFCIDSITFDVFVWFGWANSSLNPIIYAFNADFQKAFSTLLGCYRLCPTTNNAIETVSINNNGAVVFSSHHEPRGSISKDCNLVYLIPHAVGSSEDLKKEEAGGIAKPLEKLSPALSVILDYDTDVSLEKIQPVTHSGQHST
Sequence of D2 (P14416 whole entry): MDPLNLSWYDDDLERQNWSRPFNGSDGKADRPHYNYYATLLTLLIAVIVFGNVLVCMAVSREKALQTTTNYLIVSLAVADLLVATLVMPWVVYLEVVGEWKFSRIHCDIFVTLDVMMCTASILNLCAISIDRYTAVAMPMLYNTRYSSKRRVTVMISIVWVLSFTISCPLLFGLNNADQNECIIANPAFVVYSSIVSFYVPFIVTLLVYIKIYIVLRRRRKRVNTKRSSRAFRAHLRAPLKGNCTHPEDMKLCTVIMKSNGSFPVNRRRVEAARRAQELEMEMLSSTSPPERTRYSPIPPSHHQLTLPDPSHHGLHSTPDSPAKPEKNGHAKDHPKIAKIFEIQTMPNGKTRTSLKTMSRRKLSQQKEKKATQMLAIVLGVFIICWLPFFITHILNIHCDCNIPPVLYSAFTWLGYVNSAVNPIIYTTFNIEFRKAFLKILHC
T2 sequence (P14842 whole entry): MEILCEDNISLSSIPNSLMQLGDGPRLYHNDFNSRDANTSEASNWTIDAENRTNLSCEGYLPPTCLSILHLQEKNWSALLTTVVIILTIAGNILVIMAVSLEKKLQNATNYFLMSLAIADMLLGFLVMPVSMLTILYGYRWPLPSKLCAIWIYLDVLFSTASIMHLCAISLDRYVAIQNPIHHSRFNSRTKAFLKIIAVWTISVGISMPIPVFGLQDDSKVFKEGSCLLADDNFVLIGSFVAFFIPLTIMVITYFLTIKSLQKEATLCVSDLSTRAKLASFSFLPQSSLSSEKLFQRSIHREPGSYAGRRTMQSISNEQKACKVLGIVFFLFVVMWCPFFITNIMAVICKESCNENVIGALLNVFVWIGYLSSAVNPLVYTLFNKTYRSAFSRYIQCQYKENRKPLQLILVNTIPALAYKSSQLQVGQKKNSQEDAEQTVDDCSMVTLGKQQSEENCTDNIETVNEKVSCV

For `COc1ccccc1N1CCN(CC(C(=O)NC(C)(C)C)c2ccccc2)CC1` (racemic) [racemate, N-tert-butyl-3-[4-(2-methoxyphenyl)piperazinyl]-2-phenylpropanamide], the IC50 in assay [1] stood at 34 nM. Moreover, the inhibition at 1 µM turned out to be 14% in [2]; 37% in assay [3]; 27% in assay [4]; 10% in assay [5]; 20% in [6].
For `COc1ccccc1N1CCN(CC(C(=O)NC(C)(C)C)c2ccccc2)CC1` (single isomer, unassigned; (+)) [(+)-enantiomer, N-tert-butyl-3-[4-(2-methoxyphenyl)piperazinyl]-2-phenylpropanamide], in [1], the IC50 was 15.5 nM. Moreover, the inhibition at 1 µM in assay [2] came to 20%; in [3], 61%; in [4], 22%; in [5], 11%; in [6], 22%.
As to `CCCN(CCC)C1CCc2cccc(O)c2C1` (centres unmarked) [Compound 8-OH-DPAT], the ED50 in assay [7] stood at 1.9 µg/kg.
In the case of `CC(C)NCC(O)c1ccc(O)c(O)c1` (centres unmarked) [isoprenaline], the “displacement of hippocampal [^3 H]WAY-100635 binding” value (“displacement of hippocampal” for short) in assay [8] (setting [15]) is “ineffective”.
For the compound `COc1ccccc1N1CCN(CC[C@@H](C(=O)N2CCCCCC2)c2ccccc2)CC1` [(c)], the IC50 in assay [1] came to 0.3 nM; in [2] (procedure (B)) it was 277 nM; in assay [9] it was 53 nM; in [3] (procedure (B)) it was 106 nM; in [11] (procedure (B)), 2240 nM. For the same compound, the inhibition at 1 µM in assay [4] is less than 50%; in assay [5], 53%; in assay [6], less than 50%. Also, in [10], the “% inhibition of binding at 5-HT2C (5-HT1C)” value is reported as less than 50%. For the same compound, in [12], the “% inhibition of binding at β” value is reported as less than 50%. Moreover, in assay [13], the “effect of pretreatment on 8-OH-DPAT-induced decrease in 5-HT release” value is reported as “completely blocked the 8-OH-DPAT-induced decrease in 5-HT release”. In addition, the “effect on 5-HT release / extracellular levels of 5-HT in the hippocampus” value in assay [13] is reported as “no significant effect on extracellular levels of 5-HT in the hippocampus”.
For the compound `COCCCC/C(=N\OCCN)c1ccc(C(F)(F)F)cc1` [fluvoxarnine], the “activity against [^3 H]WAY-100635 binding” value in [8] (micromolar concentrations) is “inactive”.
Compound `NCCc1c[nH]c2ccc(C(N)=O)cc12` [Compound 5-CT] returned an IC50 in assay [14] of 10 to 100 nM.
In assay [14], `CSc1ccc2c(c1)C(N1CCN(C)CC1)Cc1ccccc1S2` (centres unmarked) [methiothepin] registered an IC50 of 10 to 100 nM.
Consider `NC[C@H](O)c1ccc(O)c(O)c1` [noradrenaline], for which the “displacement of hippocampal” value in [8] (setting [15]) was “ineffective”.
As to `O=C1CN=C(c2ccccc2Cl)c2cc([N+](=O)[O-])ccc2N1` [clonazepam], in assay [8] (setting [16]), the “displacement of hippocampal” value is given as “ineffective”.
Compound `COC(=O)c1cc2c(N3CCN(CCCCN4C(=O)c5ccccc5S4(=O)=O)CC3)cccc2[nH]1` [SDZ-216525] yielded an IC50 in [14] of 5 nM.
For the compound `CNC[C@H](O)c1cccc(O)c1` [L-phenylephrine], in assay [8] (setting [15]), the “displacement of hippocampal” value is “ineffective”.
For the compound `CN(C)CCCN1c2ccccc2CCc2ccccc21` [imipramine], the “displacement of hippocampal” value in [8] (setting [16]) was “ineffective”.
With `COc1ccccc1N1CCN(CCN(C(=O)C2CCCCC2)c2ccccn2)CC1` [Compound (a), N-(2-(1-(4-(2-methoxyphenyl)piperazinyl))ethyl)-N-(2-pyridinyl)cyclohexanecarboxamide], the inhibition at 1 µM in [2], in assay [3], in assay [4], in assay [5] and in [6] was less than 50% throughout. In addition, the “% inhibition of binding at 5-HT2C (5-HT1C)” value in assay [10] is listed as less than 50%. The “% inhibition of binding at 5-HT1D” value in assay [11] (10^-6 M) is less than 50%. Moreover, in assay [12], the “% inhibition of binding at β” value is less than 50%.
`COc1ccccc1N1CCN(CCCCN2C(=O)c3ccccc3C2=O)CC1` [NAN 190]: the IC50 in assay [14] was 10 to 100 nM.
With `NCCc1ccc(O)c(O)c1` [dopamine], the “displacement of hippocampal” value in assay [8] (setting [15]) is “ineffective”.
